Results from patent US20190070170A1, “METHOD OF S[…]-1” (Macau University of Science and Technology, priority 2017, published 2019).

How the values were obtained:
Assay type in all cases: cell-based
mPGES-1 [1] = test: mPGES-1 protein expression in LPS-activated rat peritoneal macrophages (western blotting); details: SIN or DEX 1 h, LPS 24 h
Experimental: Sprague-Dawley (SD) rats from the University of Hong Kong were housed in cages with free access to food and water. Peritoneal macrophages of SD rats were isolated as described in Liu J. et al., Pharmacological research 2016, 111:303-315. Briefly, untreated rats were sacrificed and after laparotomy, about 50 ml cold sterile Hank's balanced salt solution (HBSS) was used to lavage the peritoneal cavity at twice, and then the peritoneal lavage fluid was collected and centrifuged at 1500 rpm for 10 min. The cell pellets was suspended at a density 1.5×10^6 cells/ml in pre-hearted DMEM medium with 10% heat-inactivated FBS, penicillin G (100 units/ml), streptomycin ([…]), and L-glutamine (2 mM), followed by seeding in 6-well plates at a density of 4.5×10^6 cells and incubation for 2 h. Then the medium were discarded to remove the non-adherent cells. The adherent cells were further washed for two times with pre-heated DMEM medium to remove floating cells. Next, cells were pre-treated with various concentration of SIN for 1 h, followed by stimulation with LPS (1 μg/ml).
Whole-cell and nuclear proteins were obtained using RIPA lysis buffer (CST, Boston, Mass., USA) and Nuclear and Cytoplasmic Extraction Reagents kit from Thermo Scientific (Asheville, N.C., USA), respectively. […] The levels of protein expression were measured using Odyssey v3.0 software from Li-COR (Lincoln, Nebr., USA).

mPGES-1 [2] = test: mPGES-1 protein expression in IL-1β-stimulated A549 cells (western blotting); details: IL-1β with SIN or DEX for 48 h
Experimental: (§1) RAW264.7 and A549 cell lines were obtained from American Type Culture Collection (ATCC, Manassas, Va., USA) and maintained in DMEM (RAW264.7) or 1640 (A549) medium containing 10% FBS (Gibco-BRL, Grand Island, N.Y., USA) and antibiotics at 37° C. in a humidified atmosphere containing 5% CO2. RAW264.7 cells were plated in 6-well plates at a density of 4×10^5 cells and incubated for 24 h, then the cells were pretreated with different concentrations of SIN for 1 h before stimulating with LPS (100 ng/ml). A549 cells were seeded in 6-well plates at a density of 1×10^5 cells and incubated for 24 h, followed by pretreatment with SIN. A549 cells were then stimulated by IL-1β (1 ng/ml).
(§2) Whole-cell and nuclear proteins were obtained using RIPA lysis buffer (CST, Boston, Mass., USA) and Nuclear and Cytoplasmic Extraction Reagents kit from Thermo Scientific (Asheville, N.C., USA), respectively. For immunoblotting, proteins from whole-cell, cytoplasm, nuclear, and microsomal fractions were separated on SDS-PAGE, then transferred onto a nitrocellulose membrane from GE Healthcare Life Sciences (Buckinghamshire, UK), and incubated with 5% skimmed milk at room temperature for 1 h. […] The levels of protein expression were measured using Odyssey v3.0 software from Li-COR (Lincoln, Nebr., USA).

COX-1 = COX-1 protein expression in IL-1β-stimulated A549 cells (western blotting); details: IL-1β with SIN or DEX for 48 h
Experimental: as §1, §2

NF-κB = test: EMSA for NF-κB DNA binding activity in LPS-stimulated rat peritoneal macrophages; details: LPS-induced, nuclear extract
Experimental: Nuclear extract proteins (10 μg) for the assay of the DNA binding activity of NF-κB were tested with a biotin-labeled oligonucleotide bio-NF-κB probe according to manufacturer's instructions of EMSA kit (Viagene Biotech).

`COC1=C[C@@H]2[C@@H]3Cc4ccc(OC)c(O)c4[C@]2(CCN3C)CC1=O` [SIN, sinomenine] was tested, and the mPGES-1 protein expression (mPGES-1 [1]) was “significantly and dose-dependently inhibited”, the mPGES-1 protein expression (mPGES-1 [2]) was “significantly and dose-dependently inhibited” and the COX-1 protein expression (COX-1) was “did not suppress”. The “NF-κB DNA binding activity (EMSA)” value (NF-κB) was “capable of suppressing”.
